{"source": "patent US20110208437A1", "about": "“METHOD AND APPARATUS FOR I[…] SAFE AND E[…] REGIMEN” (THE MCLEAN HOSPITAL CORPORATION, priority 2008, published 2011)", "origin": "cited, not measured here", "key": {"[1]": {"details": "clinical trials, adults and children"}, "dopamine reuptake": {"target": "dopamine reuptake (Homo sapiens, UniProt Q01959)", "sequence (Q01959 whole entry)": "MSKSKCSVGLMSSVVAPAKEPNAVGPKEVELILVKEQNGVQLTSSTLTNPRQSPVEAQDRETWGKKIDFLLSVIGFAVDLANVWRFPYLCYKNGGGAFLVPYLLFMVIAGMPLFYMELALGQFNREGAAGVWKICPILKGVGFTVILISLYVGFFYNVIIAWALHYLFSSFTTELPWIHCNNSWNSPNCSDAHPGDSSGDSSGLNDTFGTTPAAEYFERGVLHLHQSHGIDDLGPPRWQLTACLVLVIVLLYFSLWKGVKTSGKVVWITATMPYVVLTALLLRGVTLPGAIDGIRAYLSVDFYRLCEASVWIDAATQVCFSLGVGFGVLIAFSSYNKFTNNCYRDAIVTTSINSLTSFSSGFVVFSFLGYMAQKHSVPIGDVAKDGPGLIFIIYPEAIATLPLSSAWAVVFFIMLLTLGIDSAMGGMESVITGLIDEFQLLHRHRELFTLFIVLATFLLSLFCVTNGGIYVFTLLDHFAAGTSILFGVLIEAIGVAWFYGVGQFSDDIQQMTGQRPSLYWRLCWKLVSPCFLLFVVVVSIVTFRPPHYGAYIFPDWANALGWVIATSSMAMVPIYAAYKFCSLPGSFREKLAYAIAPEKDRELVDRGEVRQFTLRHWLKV"}, "[2]": {"details": "2.5 mg Focalin same therapeutic benefit as 5.0 mg Ritalin"}, "[3]": {"details": "oral administration of the same mg/kg dose"}}, "data": [{"compound": "CNCC[C@@H](Oc1ccccc1C)c1ccccc1", "note": "[Atomoxetine]", "values": [{"measurement": "coverage of symptoms associated with ADHD", "setting": "[1]", "value": 24, "unit": "h"}]}, {"compound": "CC(NC(C)(C)C)C(=O)c1cccc(Cl)c1", "note": "(stereo not shown) [Bupropion]", "values": [{"measurement": "potency as inhibitor of dopamine reuptake relative to norepinephrine reuptake", "setting": "dopamine reuptake", "value": "twice as potent"}]}, {"compound": "COC(=O)[C@H](c1ccccc1)[C@H]1CCCCN1", "note": "[Focalin]", "values": [{"measurement": "potency relative to methylphenidate", "setting": "[2]", "value": "twice as potent"}]}, {"compound": "COC(=O)C(c1ccccc1)C1CCCCN1", "note": "(stereo not shown) [IR-MPH, methylphenidate]", "values": [{"measurement": "differences between individuals in peak blood levels (Cmax)", "setting": "[3]", "value": "2-3 fold"}]}]}
